# Assay results published in patent US8268881B2, “Carboxamide derivatives as muscarinic receptor antagonists” (Pfizer Limited, priority 2005, dated 2012).
# Target: T1, human muscarinic M3 receptor (Homo sapiens, UniProt P20309)
# T1 construct: expressed in transfected cells
# Assay: hM3 β-Lac potency assay (cell based β-lactamase)
# Conditions: not given
# Description: M3 potency was determined in CHO-K1 cells transfected with the NFAT-Betalactamase gene. CHO (Chinese Hamster Ovary) cells recombinantly expressing the human muscarinic M3 receptor were transfected with the NFAT_β-Lac_Zeo plasmid.
# The cells were re-suspended at 2×10^5 cells/ml in growth medium (composition as described above). […] Inhibition curves were plotted and IC50 values generated using a 4-parameter sigmoid fit and converted to Ki values using the Cheng-Prusoff correction and the KD value for carbamyl choline in the assay.
# T1 sequence (P20309 whole entry): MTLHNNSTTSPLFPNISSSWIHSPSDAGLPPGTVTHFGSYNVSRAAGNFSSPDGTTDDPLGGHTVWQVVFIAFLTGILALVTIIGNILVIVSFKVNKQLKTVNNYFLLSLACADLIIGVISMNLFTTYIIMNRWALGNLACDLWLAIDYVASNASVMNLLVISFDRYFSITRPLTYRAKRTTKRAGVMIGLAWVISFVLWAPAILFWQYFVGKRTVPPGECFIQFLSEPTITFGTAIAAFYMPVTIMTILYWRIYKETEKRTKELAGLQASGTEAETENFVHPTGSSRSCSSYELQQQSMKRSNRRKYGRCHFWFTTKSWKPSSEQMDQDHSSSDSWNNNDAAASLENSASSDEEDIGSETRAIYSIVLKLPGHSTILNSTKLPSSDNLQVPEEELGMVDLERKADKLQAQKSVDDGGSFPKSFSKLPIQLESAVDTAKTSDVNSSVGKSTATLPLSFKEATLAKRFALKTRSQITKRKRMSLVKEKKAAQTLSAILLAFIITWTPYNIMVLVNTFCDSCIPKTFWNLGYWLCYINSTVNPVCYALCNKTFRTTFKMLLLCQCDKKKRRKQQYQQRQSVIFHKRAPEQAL
row,SMILES,Ki
1,"CC(C)(CCC(C(N)=O)(c1ccccc1)c1ccccc1)N1CC[C@H](Oc2ccc(Cl)cc2O)C1 [Example 36, 5-[(3S)-3-(4-Chloro-2-Hydroxy-phenoxy)-pyrrolidin-1-yl]-5-methyl-2,2-diphenyl-hexanoic acid amide]",17.6 nM

# Same assay, conditions: CHO cells expressing human M3 receptor, NFAT β-lactamase reporter; […]; IC50 converted to Ki by Cheng-Prusoff; read-out: Cell based β-lactamase M3 Ki
row,SMILES,Ki
1,"CC(C)(CCC(C#N)(c1ccccc1)c1ccccc1)N1CC(OCc2ccc(O)cc2)C1 [Example 151, 5-{3-[(4-Hydroxybenzyl)oxy]azetidin-1-yl}-5-methyl-2,2-diphenylhexanenitrile]",0.191 nM

# Same assay, conditions: CHO cells expressing human M3 receptor, NFAT β-lactamase reporter; inhibition of 80 nM carbamyl choline signal, 4 h; IC50 converted to Ki by Cheng-Prusoff; read-out: Cell based β-lactamase M3 Ki
row,Ki,SMILES
1,111 nM,"COc1ccc(C#N)c(O[C@H]2CCN(C(C)(C)CCC(C(N)=O)(c3ccccc3)c3ccccc3)C2)c1 [Example 69, 5-[(3S)-3-(2-Cyano-5-methoxy-phenoxy)-pyrrolidin-1-yl]-5-methyl-2,2-diphenylhexanamide]"
2,0.468 nM,"CC(C)(CCC(C(N)=O)(c1ccccc1)c1ccccc1)N1CC(OCc2ccc(Cl)c(O)c2)C1 [Example 138, 5-[3-(4-Chloro-3-hydroxy-benzyloxy)-azetidin-1-yl]-5-methyl-2,2-diphenyl-hexanoic acid amide]"
3,0.623 nM,"COc1cccc(O[C@H]2CCN(C(C)(C)CCC(C(N)=O)(c3ccccc3)c3ccccc3)C2)c1F [Example 51, 5-[(3S)-3-(2-Fluoro-3-Methoxy-phenoxy)-pyrrolidin-1-yl]-5-methyl-2,2-diphenyl-hexanoic acid amide]"
4,6.51 nM,"Cc1c(O)cccc1OC1CCN(C(C)(C)CCC(C(N)=O)(c2ccccc2)c2ccccc2)CC1 [Example 96, 5-[4-(3-hydroxy-2-methylphenoxy)piperidin-1-yl]-5-methyl-2,2-diphenylhexanamide]"
5,6.57 nM,"CC(C)(CCC(C(N)=O)(c1ccccc1)c1ccccc1)N1CC[C@H](Oc2cc(O)cc(Cl)c2)C1 [Example 34, 5-[(3S)-3-(3-Chloro-5-hydroxy-phenoxy)-pyrrolidin-1-yl]-5-methyl-2,2-diphenyl-hexanoic acid amide]"
6,1.74 nM,"CC(C)(CCC(C(N)=O)(c1ccccc1)c1ccccc1)N1CC[C@H](Oc2cc(O)cc(F)c2)C1 [Example 46, 5-[(3S)-3-(3-Fluoro-5-Hydroxy-phenoxy)-pyrrolidin-1-yl]-5-methyl-2,2-diphenyl-hexanoic acid amide]"
7,1.94 nM,"COc1ccc(OC2CN(C(C)(C)CCC(C#N)(c3ccccc3)c3ccccc3)C2)cc1 [Example 105, 5-[3-(4-Methoxyphenoxy)azetidin-1-yl]-5-methyl-2,2-diphenylhexanenitrile]"
8,30 nM,"CC(C)(CCC(C(N)=O)(c1ccccc1)c1ccccc1)N1CC[C@@H](Oc2ccc(C#N)c(O)c2)C1 [Example 83, 5-[(3R)-3-(3-hydroxy-4-cyano-phenoxy)-pyrrolidin-1-yl]-5-methyl-2,2-diphenylhexanamide]"
9,0.996 nM,"CC(C)(CCC(C(N)=O)(c1ccccc1)c1ccccc1)N1CC[C@H](Oc2cccc(O)c2Cl)C1 [Example 38, 5-[(3S)-3-(2-Chloro-3-Hydroxy-phenoxy)-pyrrolidin-1-yl]-5-methyl-2,2-diphenyl-hexanoic acid amide]"
10,108 nM,"CC(C)(CCC(C(N)=O)(c1ccccc1)c1ccccc1)N1CC[C@H](Oc2ccc3cc(O)ccc3c2)C1 [Example 20, 5-{(3S)-3-[(6-Hydroxy-2-naphthyl)oxy]pyrrolidin-1-yl}-5-methyl-2,2-diphenylhexanamide]"
11,10.8 nM,"NC(=O)C(CCC1(N2CC(Oc3ccc(O)c(F)c3)C2)CCCC1)(c1ccccc1)c1ccccc1 [Example 145, 4-{1-[3-(3-Fluoro-4-hydroxy-phenoxy)-azetidin-1-yl]-cyclopentyl}-2,2-diphenyl-butyramide]"
12,6.09 nM,"CC(C)(CCC(C(N)=O)(c1ccccc1)c1ccccc1)N1CC[C@H](Oc2cc(O)ccc2Cl)C1 [Example 40, 5-[(3S)-3-(2-Chloro-5-Hydroxy-phenoxy)-pyrrolidin-1-yl]-5-methyl-2,2-diphenyl-hexanoic acid amide]"
13,26.8 nM,"CC(C)(CCC(C(N)=O)(c1ccccc1)c1ccccc1)N1CCC(Oc2cc(O)c(Cl)cc2Cl)CC1 [Example 93, 5-[4-(2,4-Dichloro-5-hydroxy-phenoxy)-piperidin-1-yl]-5-methyl-2,2-diphenylhexanoic acid amide]"
14,0.0636 nM,"CC(C)(CCC(C(N)=O)(c1ccccc1)c1ccccc1)N1CC(OCc2ccccc2)C1 [Example 102, 5-[3-(Benzyloxy)azetidin-1-yl]-5-methyl-2,2-diphenylhexanamide]"
15,40.7 nM,"CC(C)(CCC(C(N)=O)(c1ccccc1)c1ccccc1)N1CC(Oc2cc(O)ccc2Cl)C1 [Example 118, 5-[3-(2-Chloro-5-hydroxy-phenoxy)-azetidin-1-yl]-5-methyl-2,2-diphenyl-hexanoic acid amide]"
16,1.87 nM,"CC(C)(CCC(C(N)=O)(c1ccccc1)c1ccccc1)N1CC[C@@H](OCc2ccccc2)C1 [Example 9, 5-[(3R)-3-(Benzyloxy)pyrrolidin-1-yl]-5-methyl-2,2-diphenylhexanamide]"
17,2.26 nM,"Cc1cc(O)cc(O[C@H]2CCN(C(C)(C)CCC(C(N)=O)(c3ccccc3)c3ccccc3)C2)c1 [Example 29, 5-[(3S)-3-(3-Hydroxy-5-methyl-phenoxy)-pyrrolidin-1-yl]-5-methyl-2,2-diphenyl-hexanoic acid amide]"
18,1.32 nM,"Cc1cccc(O[C@H]2CCN(C(C)(C)CCC(C(N)=O)(c3ccccc3)c3ccccc3)C2)c1 [Example 14, 5-Methyl-5-[(3S)-3-(3-methylphenoxy)pyrrolidin-1-yl]-2,2-diphenylhexanamide]"
19,0.714 nM,"CC(C)(CCC(C(N)=O)(c1ccccc1)c1ccccc1)N1CC(Oc2cc(O)cc(O)c2)C1 [Example 149, 5-[3-(3,5-Dihydroxy-phenoxy)-azetidin-1-yl]-5-methyl-2,2-diphenyl-hexanoic acid amide]"
20,65.6 nM,"CC(C)(CCC(C(N)=O)(c1ccccc1)c1ccccc1)N1CC[C@H](OCc2cccc(-c3ccccc3O)c2)C1 [Example 64, 5-{(3S)-3-[(2′-Hydroxybiphenyl-3-yl)methoxy]pyrrolidin-1-yl}-5-methyl-2,2-diphenylhexanamide]"
21,1.55 nM,"CC(C)(CCC(C(N)=O)(c1ccccc1)c1ccccc1)N1CC[C@@H](Oc2ccccc2)C1 [Example 4, 5-Methyl-5-[(3R)-3-phenoxypyrrolidin-1-yl]-2,2-diphenylhexanamide]"
22,0.582 nM,"CC(C)(CCC(C(N)=O)(c1ccccc1)c1ccccc1)N1CC[C@@H](Oc2cccc(O)c2F)C1 [Example 76, 5-[(3R)-3-(2-Fluoro-3-hydroxy-phenoxy)-pyrrolidin-1-yl]-5-methyl-2,2-diphenylhexanamide]"
23,8.05 nM,"CC(C)(CCC(C(N)=O)(c1ccccc1)c1ccccc1)N1CC(Oc2cc(O)cc(Br)c2)C1 [Example 142, 5-[3-(3-Bromo-5-hydroxy-phenoxy)-azetidin-1-yl]-5-methyl-2,2-diphenyl-hexanoic acid amide]"
24,36.4 nM,"CC(C)(CCC(C(N)=O)(c1ccccc1)c1ccccc1)N1CC[C@H](Oc2cc(Cl)c(Cl)cc2O)C1 [Example 32, 5-[(3S)-3-(4,5-Dichloro-2-Hydroxy-phenoxy)-pyrrolidin-1-yl]-5-methyl-2,2-diphenyl-hexanoic acid amide]"
